{"source": "patent US20040018151A1", "about": "“Use of anandamide/cannabinoid receptor/acceptor agonists in als screening and treatment methods” (priority 2002, published 2004)", "key": {"[1]": {"target": "CB1 cannabinoid receptor (Homo sapiens, UniProt P21554)", "sequence (P21554 whole entry)": "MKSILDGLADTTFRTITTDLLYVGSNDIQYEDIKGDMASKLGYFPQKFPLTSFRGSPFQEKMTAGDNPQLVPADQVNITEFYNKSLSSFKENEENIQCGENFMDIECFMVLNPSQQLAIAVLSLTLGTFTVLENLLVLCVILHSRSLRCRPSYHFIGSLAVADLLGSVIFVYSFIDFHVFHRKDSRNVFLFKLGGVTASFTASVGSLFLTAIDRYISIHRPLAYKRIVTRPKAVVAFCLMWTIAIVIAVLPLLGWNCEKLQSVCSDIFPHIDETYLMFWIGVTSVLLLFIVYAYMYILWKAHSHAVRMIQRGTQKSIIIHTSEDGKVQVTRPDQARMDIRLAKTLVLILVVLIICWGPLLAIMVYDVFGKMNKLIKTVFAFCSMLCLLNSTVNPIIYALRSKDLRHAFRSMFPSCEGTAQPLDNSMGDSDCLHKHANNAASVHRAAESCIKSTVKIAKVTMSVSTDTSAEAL", "details": "background statement; cited from earlier work"}, "[2]": {"target": "CB1 (Homo sapiens, UniProt P21554)", "sequence (P21554 whole entry)": "as above", "details": "background statement; cited from earlier work"}, "[3]": {"test_system": "mouse primary spinal cord cultures", "assay": "TBH oxidative damage in mixed spinal cord cultures (LDH release)"}, "[4]": {"test_system": "hSOD1^G93A mice (ALS mice)", "assay": "Rotarod endurance (disease progression) in hSOD1^G93A mice", "format": "in vivo", "details": "for Increase of A50% (age at which endurance declined to 50%) per 10 mg/kg of THC; A.(dose) estimate: nonlinear mixed effects model, rotarod; for Days from 9 to 1 min / Days to 50% endurance: prediction based on model", "procedure": "(§1) hSOD1^G93A mice (ALS mice) were administered Δ^9-THC (5 and 10 mg/kg body weight) or vehicle beginning at 60 days of age, i.e., prior to onset of disease signs. The earliest clinical signs of disease observed were tremors and shaking of their limbs when mice were suspended briefly in the air by their tails. These signs were never seen in non-transgenic littermates, but were always seen in hSOD^G93A mice after 75 days. In a subsequent set of experiments, mice were administered 20 mg/kg Δ^9-THC beginning on day 75 when tremors were first observed, i.e., after onset of disease signs. Mice were evaluated on a rotarod to follow disease progression.\nIn order to assess the effect of Δ^9-THC on disease progression, a logistic response curve was fit to the endurance time for each mouse using a nonlinear mixed effects model. For these experiments, each mouse was assessed on the rotarod at 5 and 10 rpm. […] A50% increased 3.3 days (±1.1 day) per 10 mg/kg of THC (2-sided p=0.003). In other words, disease progression as assessed by rotarod performance was delayed 3.3 days in the 10 mg/kg and 6.6 days in the 20 mg/kg group as compared to the vehicle treated animals. This represents a 3% increase in motor performance endurance in the 10 mg/kg group and a 6% increase in the 20 mg/kg group. Note that the increase in the 20 mg/kg group was not affected by the delay in initiation of treatment.\nAnimals were assessed later in the disease by testing them at the slower rotarod speed (5 rpm). In the data analysis, A50% increased 6.5 days (±0.4 day) when changing from 10 rpm to 5 rpm. However, the rate of decline increased by a factor of 2 in going from 10 rpm to 5 rpm. This rate of decline can also be understood by expressing it as number of days to decline from 9 minutes to 1-minute endurance, based on the fitting equation. At 10 rpm, it took 17.1 (±1.76) days to decline from 9 to 1 minute vs. 8.55 (±0.88) days at 5 rpm. […] FIG. 1a. Δ^9-THC delays progression of disease in hSOD1^G93A mice. Motor function was tested weekly on the rotarod at 10 and 5 rpm. The decline in endurance over time for each animal at 10 rpm is shown in (a). Mouse numbers 1-13 correspond to vehicle treated animals, numbers 1001-1008 correspond to the 10 mg/kg Δ^9-THC treatment group, and 2001-2009 correspond to the 20 mg/kg Δ^9-THC treatment group.\nFIG. 1b Logistic response curves showing declines based on fitting a logistic model to observed data. Solid curves are tests at 10 rpm, dashed curves for 5 rpm. The three curves for each rpm are for doses of 0 (vehicle, blue), 10 (mg/kg Δ^9-THC, green) and 20 (mg/kg Δ^9-THC, red). Parameters for curves are based on a nonlinear mixed effects model given by Time=10/(1+exp((Age-A)/B))."}, "[5]": {"test_system": "ALS patients", "assay": "Open label crossover escalating dose study of Marinol in ALS patients", "format": "in vivo, humans"}, "[6]": {"test_system": "hSOD1^G93A mice (ALS mice)", "assay": "Survival of hSOD1^G93A mice", "format": "in vivo", "procedure": "as §1\nIn these experiments, the treatment effect was to slow the progression of disease (FIG. 1b). Furthermore, treatment with Δ^9-THC improved survival. […] Treatment with 10 mg/ kg Δ^9-THC extended mean survival from 125.9±1.6 days (vehicle, n=15) to 131.8±2.4 days (Δ^9-THC, n=8, p<0.05)(FIG. 2a, c). This represents a […] increase in survival in the 10 mg/ kg Δ^9-THC-treated group. At a (delayed) dose of 20 mg/kg the increase in mean survival was 6.4 days (5.1%).\nFIG. 2. Δ^9-THC extends survival in hSOD1^G93A mice. Cumulative survival in hSOD1^G93A mice treated with 10 mg/kg Δ^9-THC (a) or 20 mg/kg Δ^9-THC (b). Mortality of hSOD1^G93A mice treated with Δ^9-THC or vehicle (c)."}, "[7]": {"test_system": "rodents", "assay": "Motor toxicity in rodents", "format": "in vivo", "details": "intraperitoneally", "procedure": "For THC the effective dose range should be 10 mg-70 mg/kg/day intraperitoneally in rodents. Motor toxicity is seen at 84 mg/kg/day. An estimate of effective dose range in rodents can be obtained from comparison to other measures of bioactivity of these compounds, e.g. in analgesia and/or anticonvulsant activity. […] However, other routes of administration may include intravenous, inhaled or sub-lingual, formulations such as in a patch or a spray, whereby the doses would most likely be different (e.g. 100 mg/day in a patch) in both rodents and humans."}, "[8]": {"test_system": "primary neuronal cultures prepared from mouse spinal cord", "assay": "Kainate excitotoxicity in spinal cord neuronal cultures", "format": "cell-based", "details": "previously observed"}, "[9]": {"test_system": "primary neuronal cultures prepared from mouse spinal cord", "details": "Abood et al, Neurosci Lett 309:197-201, 2001; cited from earlier work"}, "[10]": {"test_system": "hSOD1^G93A mice (ALS mice)", "assay": "Behaviour and body weight of treated hSOD1^G93A mice", "format": "in vivo", "procedure": "as §1"}, "[11]": {"details": "rpm 10, dose 10 as printed (r11)"}}}
{"smiles": "CCCCCc1cc(O)c2c(c1)OC(C)(C)C1CCC(CO)=CC21", "note": "(stereo not shown) [11-hydroxy-THC]", "values": [{"measurement": "Agonist potency/activity relative to THC", "setting": "[1]", "result": "more active than its parent"}]}
{"smiles": "CCCCCCC(C)(C)c1cc(O)c2c(c1)OC(C)(C)[C@@H]1CC=C(CO)C[C@@H]21", "note": "[HU-210]", "values": [{"measurement": "Activity at central (CB1) receptor", "setting": "[1]", "result": "retains activity at central (CB1)"}]}
{"smiles": "CCCCCCC(C)(C)c1cc(O)c2c(c1)OC(C)(C)[C@H]1CC=C(CO)C[C@H]21", "note": "[HU-211, dexanabinol]", "values": [{"measurement": "Activity at central (CB1) receptor", "setting": "[1]", "result": "inactive"}]}
{"smiles": "CCCCCCCC/C=C\\CCCCCCCC(N)=O", "note": "[Oleamide]", "values": [{"measurement": "Binding to CB1", "setting": "[2]", "result": "does not bind CB1"}]}
{"smiles": "CCCc1cc(O)c2c(c1)OC(C)(C)[C@@H]1CCC(C)=C[C@@H]21", "note": "[Propyl-THC]", "values": [{"measurement": "Agonist potency/activity relative to THC", "setting": "[1]", "result": "less agonist activity than THC"}]}
{"smiles": "Cc1c(C(=O)NN2CCCCC2)nn(-c2ccc(Cl)cc2Cl)c1-c1ccc(Cl)cc1", "note": "[SR141716A]", "values": [{"measurement": "Block of the antioxidant effect of Δ^9-THC", "setting": "[3]; 1 μM SR141716A plus 0.5 μM Δ^9-THC, TBH", "result": "not blocked"}]}
{"smiles": "CCCCCc1cc(O)c2c(c1)OC(C)(C)[C@@H]1CCC(C)=C[C@@H]21", "note": "[Δ^9-THC, delta-9-tetrahydrocannabinol]", "values": [{"measurement": "Delay of disease progression as assessed by rotarod performance vs vehicle", "setting": "[4]; 10 mg/kg", "result": 3.3, "unit": "days"}, {"measurement": "Increase in motor performance endurance", "setting": "[4]; 10 mg/kg", "result": 3, "unit": "%"}, {"measurement": "Increase in motor performance endurance", "setting": "[4]; 20 mg/kg", "result": 6, "unit": "%"}, {"measurement": "Delay of disease progression as assessed by rotarod performance vs vehicle", "setting": "[4]; 20 mg/kg, from day 75", "result": 6.6, "unit": "days"}, {"measurement": "Increase of A50% (age at which endurance declined to 50%) per 10 mg/kg of THC; A.(dose) estimate", "setting": "[4]", "result": 3.29, "unit": "days"}, {"measurement": "Increase of A50% (age at which endurance declined to 50%) per 10 mg/kg of THC; A.(dose) estimate", "setting": "[4]; listed as THC", "result": 3.3, "unit": "days"}, {"measurement": "Days from 9 to 1 min", "setting": "[4]; rpm 5, dose 10", "result": 8.55, "unit": "days"}, {"measurement": "Days to 50% endurance", "setting": "[4]; rpm 5, dose 10", "result": 109.8, "unit": "days"}, {"measurement": "Days from 9 to 1 min", "setting": "[4]; rpm 5, dose 20", "result": 8.55, "unit": "days"}, {"measurement": "Days to 50% endurance", "setting": "[4]; rpm 5, dose 20", "result": 113.1, "unit": "days"}, {"measurement": "Days from 9 to 1 min", "setting": "[4]; rpm 10, dose 10 (r10)", "result": 17.10, "unit": "days"}, {"measurement": "Days to 50% endurance", "setting": "[4]; rpm 10, dose 10 (r10)", "result": 103.3, "unit": "days"}, {"measurement": "Days from 9 to 1 min", "setting": "[4]; [11]", "result": 17.10, "unit": "days"}, {"measurement": "Days to 50% endurance", "setting": "[4]; [11]", "result": 106.6, "unit": "days"}, {"measurement": "Patients showing reduction in rate of decline of ALSFRS", "setting": "[5]; 3 month trial period", "result": "11 of the 19"}, {"measurement": "Serious adverse events", "setting": "[5]; 25 patients treated, one death unrelated to drug effect", "result": "no other serious adverse events"}, {"measurement": "Symptomatic benefits", "setting": "[5]; ALS patients while taking Marinol", "result": "Symptomatic benefits were seen in insomnia, appetite, fasciculations and spasticity"}, {"measurement": "Tolerability", "setting": "[5]; ALS patients, oral, escalating dose 2.5-10 mg, 3 months", "result": "well tolerated"}, {"measurement": "Tolerability", "setting": "[5]; humans, 10 mg/day orally", "result": "well tolerated"}, {"measurement": "Average rate of decline (ALSFRS)", "setting": "[5]; when patients were taking drug", "result": 27, "unit": "%"}, {"measurement": "Survival", "setting": "[6]; 5 mg/kg", "result": "trend towards increased survival"}, {"measurement": "Mean survival", "setting": "[6]; 10 mg/kg, n=8, vehicle 125.9±1.6 days", "result": "131.8 ± 2.4", "unit": "days"}, {"measurement": "Dose at which motor toxicity is seen", "setting": "[7]", "result": 84, "unit": "mg/kg/day"}, {"measurement": "Protection of spinal cord neurons against direct excitotoxin (kainate) exposure, compared with NBQX", "setting": "[8]", "result": "as effective as the anti-excitotoxic compound NBQX"}, {"measurement": "Cytotoxicity", "setting": "[3]; 200 μM TBH for 5 hours in the presence of 0.5 μM Δ^9-THC, TBH alone 74 (±14) %, n=4", "result": "28 (±8) %"}, {"measurement": "Kainate toxicity", "setting": "[9]", "result": "effectively reduce kainate toxicity"}, {"measurement": "Weights, difference between treatment groups", "setting": "[10]; 5, 10, 20 mg/kg vs vehicle", "result": "no significant difference in weights"}, {"measurement": "Overt behavioral changes", "setting": "[10]; any of the doses given (5, 10, 20 mg/kg)", "result": "No overt behavioral changes"}]}
